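Following 48 hours of exposure in 96-well plates, responses at five concentrations were used to interpolate endpoints linearly. TGI denotes the concentration required for complete inhibition of growth.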
Columns and labels:
Experiment in all cases: growth of human tumour cells (NCI), 48 h
SK-MEL-28 melanoma = tested on: SK-MEL-28 melanoma
OVCAR-5 ovarian = tested on: OVCAR-5 ovarian
SW-620 colon = tested on: SW-620 colon
OVCAR-8 ovarian = tested on: OVCAR-8 ovarian
COLO 205 colon = tested on: COLO 205 colon
ACHN renal = tested on: ACHN renal
CCRF-CEM leukemia = tested on: CCRF-CEM leukemia
RXF 393 renal = tested on: RXF 393 renal
K-562 leukemia = tested on: K-562 leukemia
MDA-N = tested on: MDA-N
KM12 colon = tested on: KM12 colon
SF-539 CNS = tested on: SF-539 CNS
OVCAR-3 ovarian = tested on: OVCAR-3 ovarian
HT29 colon = tested on: HT29 colon
PC-3 prostate = tested on: PC-3 prostate
SNB-75 CNS = tested on: SNB-75 CNS
HOP-92 NSCLC = tested on: HOP-92 NSCLC
NCI-H226 lung = tested on: NCI-H226 lung
LOX IMVI melanoma = tested on: LOX IMVI melanoma
MDA-MB-231 breast = tested on: MDA-MB-231 breast
SK-OV-3 ovarian = tested on: SK-OV-3 ovarian
NCI-H23 lung = tested on: NCI-H23 lung
MDA-MB-435 = tested on: MDA-MB-435
HCT-116 colon = tested on: HCT-116 colon
CAKI-1 renal = tested on: CAKI-1 renal
IGROV1 ovarian = tested on: IGROV1 ovarian
OVCAR-4 ovarian = tested on: OVCAR-4 ovarian
UACC-257 melanoma = tested on: UACC-257 melanoma
DU-145 prostate = tested on: DU-145 prostate
786-0 renal = tested on: 786-0 renal
EKVX NSCLC = tested on: EKVX NSCLC
MALME-3M melanoma = tested on: MALME-3M melanoma
HS 578T breast = tested on: HS 578T breast
A498 renal = tested on: A498 renal
A549 NSCLC = tested on: A549 NSCLC
MOLT-4 leukemia = tested on: MOLT-4 leukemia
HL-60(TB) leukemia = tested on: HL-60(TB) leukemia
NCI-H460 lung = tested on: NCI-H460 lung
M14 melanoma = tested on: M14 melanoma
RPMI-8226 leukemia = tested on: RPMI-8226 leukemia
NCI/ADR-RES ovarian = tested on: NCI/ADR-RES ovarian
SK-MEL-5 melanoma = tested on: SK-MEL-5 melanoma
SN12C renal = tested on: SN12C renal
T-47D breast = tested on: T-47D breast
NCI-H522 lung = tested on: NCI-H522 lung
SF-268 CNS = tested on: SF-268 CNS
BT-549 breast = tested on: BT-549 breast
SNB-19 CNS = tested on: SNB-19 CNS
SK-MEL-2 melanoma = tested on: SK-MEL-2 melanoma
TK-10 renal = tested on: TK-10 renal
U251 CNS = tested on: U251 CNS
HOP-62 NSCLC = tested on: HOP-62 NSCLC
HCT-15 colon = tested on: HCT-15 colon
SF-295 CNS = tested on: SF-295 CNS
UO-31 renal = tested on: UO-31 renal
SR leukemia = tested on: SR leukemia
UACC-62 melanoma = tested on: UACC-62 melanoma
HCC-2998 colon = tested on: HCC-2998 colon

For `CN1C2CCC1CN(CCOC(c1ccc(F)cc1)c1ccc(F)cc1)C2`, the TGI (SK-MEL-28 melanoma) was 30.1 µM, the TGI (OVCAR-5 ovarian) was > 100 µM and the TGI (SW-620 colon) was 83.8 µM. The TGI (OVCAR-8 ovarian) was > 100 µM, the TGI (COLO 205 colon) was 33.8 µM and the TGI (ACHN renal) was > 100 µM. For the same compound, the TGI (CCRF-CEM leukemia) was > 100 µM, the TGI (RXF 393 renal) was 43 µM and the TGI (K-562 leukemia) was 62.6 µM. For the same compound, the TGI (MDA-N) was > 100 µM, the TGI (KM12 colon) was 49.5 µM and the TGI (SF-539 CNS) was 38 µM. For the same compound, the TGI (OVCAR-3 ovarian) was > 100 µM, the TGI (HT29 colon) was 73.7 µM and the TGI (PC-3 prostate) was > 100 µM. For the same compound, the TGI (SNB-75 CNS) was > 100 µM, the TGI (HOP-92 NSCLC) was 93.9 µM and the TGI (NCI-H226 lung) was > 100 µM. For the same compound, the TGI (LOX IMVI melanoma) was 39.1 µM, the TGI (MDA-MB-231 breast) was 58.5 µM and the TGI (SK-OV-3 ovarian) was > 100 µM. The TGI (NCI-H23 lung) was > 100 µM, the TGI (MDA-MB-435) was 63.7 µM and the TGI (HCT-116 colon) was 44.8 µM. The TGI (CAKI-1 renal) was > 100 µM, the TGI (IGROV1 ovarian) was > 100 µM and the TGI (OVCAR-4 ovarian) was > 100 µM. For the same compound, the TGI (UACC-257 melanoma) was 37.3 µM, the TGI (DU-145 prostate) was > 100 µM and the TGI (786-0 renal) was 40 µM. The TGI (EKVX NSCLC) was > 100 µM, the TGI (MALME-3M melanoma) was 32.5 µM and the TGI (HS 578T breast) was > 100 µM. The TGI (A498 renal) was 86 µM, the TGI (A549 NSCLC) was > 100 µM and the TGI (MOLT-4 leukemia) was 83.7 µM. For the same compound, the TGI (HL-60(TB) leukemia) was 31.3 µM, the TGI (NCI-H460 lung) was 60.6 µM and the TGI (M14 melanoma) was 38.8 µM. The TGI (RPMI-8226 leukemia) was 55.9 µM, the TGI (NCI/ADR-RES ovarian) was > 100 µM and the TGI (SK-MEL-5 melanoma) was 27.8 µM. The TGI (SN12C renal) was > 100 µM, the TGI (T-47D breast) was 76.6 µM and the TGI (NCI-H522 lung) was > 100 µM. For the same compound, the TGI (SF-268 CNS) was > 100 µM, the TGI (BT-549 breast) was > 100 µM and the TGI (SNB-19 CNS) was > 100 µM. The TGI (SK-MEL-2 melanoma) was 56.3 µM, the TGI (TK-10 renal) was > 100 µM and the TGI (U251 CNS) was 78.9 µM. For the same compound, the TGI (HOP-62 NSCLC) was 59.3 µM, the TGI (HCT-15 colon) was > 100 µM and the TGI (SF-295 CNS) was 39.1 µM. The TGI (UO-31 renal) was > 100 µM.

With `COc1cc(OC)cc(-n2c(N)c(C#N)c3ccc([N+](=O)[O-])cc3c2=O)c1` the TGI (SK-MEL-28 melanoma) was > 100 µM, the TGI (SW-620 colon) was > 100 µM and the TGI (OVCAR-8 ovarian) was 59.2 µM. For the same compound, the TGI (COLO 205 colon) was > 100 µM, the TGI (ACHN renal) was > 100 µM and the TGI (K-562 leukemia) was > 100 µM. The TGI (MDA-N) was > 100 µM, the TGI (KM12 colon) was > 100 µM and the TGI (HT29 colon) was > 100 µM. For the same compound, the TGI (PC-3 prostate) was > 100 µM, the TGI (SNB-75 CNS) was 60.6 µM and the TGI (HOP-92 NSCLC) was 44.9 µM. For the same compound, the TGI (NCI-H226 lung) was 51.6 µM, the TGI (LOX IMVI melanoma) was > 100 µM and the TGI (SR leukemia) was 55.8 µM. The TGI (MDA-MB-231 breast) was 96.2 µM, the TGI (NCI-H23 lung) was > 100 µM and the TGI (UACC-62 melanoma) was > 100 µM. The TGI (MDA-MB-435) was > 100 µM, the TGI (HCT-116 colon) was > 100 µM and the TGI (CAKI-1 renal) was 90.8 µM. For the same compound, the TGI (OVCAR-4 ovarian) was 52 µM, the TGI (UACC-257 melanoma) was > 100 µM and the TGI (DU-145 prostate) was 47.1 µM. For the same compound, the TGI (786-0 renal) was 39.5 µM, the TGI (HS 578T breast) was 87.6 µM and the TGI (A498 renal) was 41.6 µM. The TGI (A549 NSCLC) was > 100 µM, the TGI (NCI-H460 lung) was > 100 µM and the TGI (RPMI-8226 leukemia) was > 100 µM. The TGI (NCI/ADR-RES ovarian) was > 100 µM, the TGI (SK-MEL-5 melanoma) was > 100 µM and the TGI (SN12C renal) was 52.3 µM. The TGI (T-47D breast) was > 100 µM, the TGI (SF-268 CNS) was > 100 µM and the TGI (HCC-2998 colon) was > 100 µM. For the same compound, the TGI (BT-549 breast) was > 100 µM, the TGI (SNB-19 CNS) was 40.4 µM and the TGI (SK-MEL-2 melanoma) was > 100 µM. The TGI (TK-10 renal) was 69 µM, the TGI (U251 CNS) was 52.4 µM and the TGI (HCT-15 colon) was > 100 µM. For the same compound, the TGI (UO-31 renal) was 74.9 µM.

For `Cc1ccc2nc(-c3ccc(N)c(Br)c3)sc2c1`, the TGI (SK-MEL-28 melanoma) was > 100 µM, the TGI (OVCAR-5 ovarian) was > 100 µM and the TGI (OVCAR-8 ovarian) was > 100 µM. For the same compound, the TGI (COLO 205 colon) was > 100 µM, the TGI (ACHN renal) was > 100 µM and the TGI (CCRF-CEM leukemia) was 45.7 µM. The TGI (RXF 393 renal) was 50 µM, the TGI (K-562 leukemia) was > 100 µM and the TGI (MDA-N) was > 100 µM. The TGI (KM12 colon) was 30.8 µM, the TGI (SF-539 CNS) was > 100 µM and the TGI (OVCAR-3 ovarian) was 40.1 µM. The TGI (HT29 colon) was > 100 µM, the TGI (PC-3 prostate) was > 100 µM and the TGI (HOP-92 NSCLC) was 50.6 µM. For the same compound, the TGI (NCI-H226 lung) was > 100 µM, the TGI (LOX IMVI melanoma) was 30.4 µM and the TGI (SR leukemia) was 43.2 µM. The TGI (MDA-MB-231 breast) was 86.4 µM, the TGI (SK-OV-3 ovarian) was 88.4 µM and the TGI (NCI-H23 lung) was 96.9 µM. For the same compound, the TGI (UACC-62 melanoma) was > 100 µM, the TGI (MDA-MB-435) was 64.1 µM and the TGI (HCT-116 colon) was > 100 µM. For the same compound, the TGI (CAKI-1 renal) was > 100 µM, the TGI (OVCAR-4 ovarian) was > 100 µM and the TGI (UACC-257 melanoma) was 72.2 µM. For the same compound, the TGI (DU-145 prostate) was > 100 µM, the TGI (786-0 renal) was > 100 µM and the TGI (EKVX NSCLC) was 58 µM. For the same compound, the TGI (MALME-3M melanoma) was > 100 µM, the TGI (HS 578T breast) was 43.6 µM and the TGI (A498 renal) was > 100 µM. The TGI (A549 NSCLC) was > 100 µM, the TGI (MOLT-4 leukemia) was 97.5 µM and the TGI (HL-60(TB) leukemia) was > 100 µM. For the same compound, the TGI (NCI-H460 lung) was 31.5 µM, the TGI (M14 melanoma) was > 100 µM and the TGI (NCI/ADR-RES ovarian) was > 100 µM. For the same compound, the TGI (SK-MEL-5 melanoma) was > 100 µM, the TGI (SN12C renal) was > 100 µM and the TGI (T-47D breast) was 59.7 µM. The TGI (NCI-H522 lung) was 47.7 µM, the TGI (SF-268 CNS) was > 100 µM and the TGI (HCC-2998 colon) was 14.8 µM. The TGI (BT-549 breast) was 35.9 µM, the TGI (SNB-19 CNS) was > 100 µM and the TGI (SK-MEL-2 melanoma) was 73.4 µM. For the same compound, the TGI (U251 CNS) was > 100 µM, the TGI (HOP-62 NSCLC) was 26.2 µM and the TGI (HCT-15 colon) was > 100 µM. For the same compound, the TGI (SF-295 CNS) was > 100 µM and the TGI (UO-31 renal) was 35.4 µM.

Reference: PubChem BioAssay (NCI)
